Molecules are shown by their SMILES. Several values for one entry are separate records, joined by “and”; a condition that tells them apart may be missing. Identical values can stand only once.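 Five concentrations, 48 hours, 96-well plates. Here, GI50 denotes the concentration required for 50% inhibition of growth. At the TGI there is no net growth.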 Where only a bound is given, the exact number is not on record here.

The subject of one assay is LOX IMVI melanoma. Briefly: inhibition of tumour cell growth, NCI panel, 48 h.
Consider `CCCCCCCCCCCCCCCCCC[n+]1ccc2c(C)c3c(c(C)c2c1)c1cc(O)ccc1n3CC`, for which the GI50 is 2.73 µM and the TGI is 10.3 µM.
The matching figures for `CCc1ccc2c(c1)N(CCO)C1=C(C(=O)OC1)C2c1cccc(Br)c1` (stereo unspecified): 0.663 µM and 17.2 µM.
The matching figures for `O=c1[nH]c(=O)n(C2CC(O)C(COP(=O)(OCc3ccc([N+](=O)[O-])o3)N(CCCCCl)CC(O)CO)O2)cc1F` (stereo unspecified): less than 0.0226 µM and more than 100 µM.
On to `CC(C)NCCCn1c(Sc2cc3c(cc2I)OCO3)nc2c(N)ncnc21`, for which the GI50 is 0.0787 µM.
`CN1C(=O)N(C)C2C1NN=c1s/c(=C\c3ccc(C(F)(F)F)cc3)c(=O)n12` (stereo unspecified): the GI50 is 0.854 µM and the TGI is more than 100 µM.
On to `N#Cc1c(N2CCOCC2)nc(=S)[nH]c1-c1ccco1`, for which the GI50 was 6.68 µM and the TGI was more than 100 µM.
In the case of `C[C@@H]1CN(Cc2ccc(F)cc2)[C@@H](C)CN1C(=O)c1cc2c(C(=O)C(=O)N(C)C)cn(C)c2cc1Cl`, the GI50 was 14.2 µM and the TGI turned out to be 28.4 µM.

For the next assay, the system named is ACHN renal. The experiment in a line: inhibition of tumour cell growth, NCI panel, 48 h.
Consider `Nc1nc(OCc2ccccc2)c2[nH]cnc2n1`, for which the GI50 is 23.1 µM and 23.4 µM; the TGI was 244 µM and 125 µM.
Turning to `Fc1ccc(/C=N/n2c(-c3ccc(F)c(Cl)c3)nn(CNc3ccccc3C(F)(F)F)c2=S)cc1`, the GI50 is 81.1 µM and the TGI is more than 100 µM.
On to `CN[C@@H](C)C(=O)N[C@H](C(=O)N1CCC[C@H]1C(=O)Nc1sc(-c2ncco2)nc1-c1ccccc1)C1CCCCC1`, for which the GI50 was 19.3 µM and the TGI was more than 54.9 µM.
As to `CC1=C2[C@@H](CC1)[C@]1(C)O[C@@](c3ccccc3)(C[C@H]1OC(=O)CO)[C@H]2OC(=O)/C=C/c1ccccc1`, the GI50 was 0.0446 µM and the TGI turned out to be 5.61 µM.
In the same order, the values of `NC(=O)c1csc(C2OC(CO)C(O)C2O)n1` (stereo unspecified) are 54.5 µM and more than 10000 µM.
Turning to `CCCN(CCS(C)(=O)=O)Cc1ccc(-c2ccc3ncnc(Nc4ccc(OCc5cccc(F)c5)c(Cl)c4)c3c2)o1`, the GI50 is 1.23 µM and the TGI was more than 25 µM.
Consider `CC(C)C[C@H](NC(=O)CNC(=O)c1cc(Cl)ccc1Cl)B1OC(=O)CC(CC(=O)O)(C(=O)O)O1` (stereo partly specified), for which the GI50 was 0.0389 µM and the TGI is more than 59.9 µM.
Compound `OCC12C3C4C5C3C1C5C42` (stereo unspecified) showed a TGI of more than 100 µM.
Turning to `CCCCCCCCCCCCCCCCCC[n+]1ccc2c(C)c3c(c(C)c2c1)c1cc(O)ccc1n3CC`, the GI50 is 3.51 µM and the TGI is 19.6 µM.
The matching figures for `CCc1ccc2c(c1)N(CCO)C1=C(C(=O)OC1)C2c1cccc(Br)c1` (stereo unspecified): 1.61 µM and 20.4 µM.
In the same order, the values of `O=c1[nH]c(=O)n(C2CC(O)C(COP(=O)(OCc3ccc([N+](=O)[O-])o3)N(CCCCCl)CC(O)CO)O2)cc1F` (stereo unspecified) are less than 0.0216 µM and 12.6 µM.
The matching figures for `CC(C)NCCCn1c(Sc2cc3c(cc2I)OCO3)nc2c(N)ncnc21`: 0.297 µM and more than 100 µM.
As for `CN1C(=O)N(C)C2C1NN=c1s/c(=C\c3ccc(C(F)(F)F)cc3)c(=O)n12` (stereo unspecified), the GI50 was 2.08 µM and the TGI was 38.5 µM.
In the same order, the values of `N#Cc1c(N2CCOCC2)nc(=S)[nH]c1-c1ccco1` are 5.75 µM and more than 100 µM.
Take `C[C@@H]1CN(Cc2ccc(F)cc2)[C@@H](C)CN1C(=O)c1cc2c(C(=O)C(=O)N(C)C)cn(C)c2cc1Cl`: the GI50 was 16.6 µM and the TGI is more than 54.6 µM.

A further assay relates to K-562 leukemia. Briefly: inhibition of tumour cell growth, NCI panel, 48 h.
As to `Nc1nc(OCc2ccccc2)c2[nH]cnc2n1`, the GI50 is 46.4 µM; the TGI is 400 µM and 307 µM.
For `Fc1ccc(/C=N/n2c(-c3ccc(F)c(Cl)c3)nn(CNc3ccccc3C(F)(F)F)c2=S)cc1`, the GI50 was 37.6 µM and the TGI was more than 100 µM.
In the same order, the values of `CN[C@@H](C)C(=O)N[C@H](C(=O)N1CCC[C@H]1C(=O)Nc1sc(-c2ncco2)nc1-c1ccccc1)C1CCCCC1` are 24.7 µM and 63.6 µM.
In the same order, the values of `CC1=C2[C@@H](CC1)[C@]1(C)O[C@@](c3ccccc3)(C[C@H]1OC(=O)CO)[C@H]2OC(=O)/C=C/c1ccccc1` are 14 µM and 61.9 µM.
Consider `NC(=O)c1csc(C2OC(CO)C(O)C2O)n1` (stereo unspecified), for which the GI50 was 8.88 µM and the TGI was 7060 µM.
For the compound `CCCN(CCS(C)(=O)=O)Cc1ccc(-c2ccc3ncnc(Nc4ccc(OCc5cccc(F)c5)c(Cl)c4)c3c2)o1`, the GI50 is 9.49 µM and the TGI was more than 25 µM.
In the same order, the values of `CC(C)C[C@H](NC(=O)CNC(=O)c1cc(Cl)ccc1Cl)B1OC(=O)CC(CC(=O)O)(C(=O)O)O1` (stereo partly specified) are 0.074 µM and more than 100 µM.
Take `OCC12C3C4C5C3C1C5C42` (stereo unspecified): the TGI was more than 100 µM.
`CCCCCCCCCCCCCCCCCC[n+]1ccc2c(C)c3c(c(C)c2c1)c1cc(O)ccc1n3CC`: the GI50 is 1.1 µM and the TGI amounted to 9.13 µM.
In the same order, the values of `CCc1ccc2c(c1)N(CCO)C1=C(C(=O)OC1)C2c1cccc(Br)c1` (stereo unspecified) are 0.368 µM and 14.7 µM.
In the same order, the values of `O=c1[nH]c(=O)n(C2CC(O)C(COP(=O)(OCc3ccc([N+](=O)[O-])o3)N(CCCCCl)CC(O)CO)O2)cc1F` (stereo unspecified) are 3.14 µM and more than 100 µM.
In the same order, the values of `CC(C)NCCCn1c(Sc2cc3c(cc2I)OCO3)nc2c(N)ncnc21` are 0.0708 µM and more than 100 µM.
Take `CN1C(=O)N(C)C2C1NN=c1s/c(=C\c3ccc(C(F)(F)F)cc3)c(=O)n12` (stereo unspecified): the GI50 was 0.431 µM and the TGI was more than 100 µM.
In the case of `N#Cc1c(N2CCOCC2)nc(=S)[nH]c1-c1ccco1`, the GI50 is 24.7 µM and the TGI was more than 100 µM.
The matching figures for `C[C@@H]1CN(Cc2ccc(F)cc2)[C@@H](C)CN1C(=O)c1cc2c(C(=O)C(=O)N(C)C)cn(C)c2cc1Cl`: 20.8 µM and 88.6 µM.
